Measured values from US12195482B1 (Arcus Biosciences, Inc., priority 2022, dated 2025).
Values belong to the compound of their own block, whether it stands above or below them.

Experiments:
recombinant human TYRO3 = target: T1, recombinant human TYRO3 (Homo sapiens, UniProt Q06418); assay: Biochemical potency, HTRF KinEASE-TK kinase assay; settings: 1 nM TYRO3, 700 μM ATP
T1 construct: purchased Invitrogen
T1 sequence (Q06418 41-890): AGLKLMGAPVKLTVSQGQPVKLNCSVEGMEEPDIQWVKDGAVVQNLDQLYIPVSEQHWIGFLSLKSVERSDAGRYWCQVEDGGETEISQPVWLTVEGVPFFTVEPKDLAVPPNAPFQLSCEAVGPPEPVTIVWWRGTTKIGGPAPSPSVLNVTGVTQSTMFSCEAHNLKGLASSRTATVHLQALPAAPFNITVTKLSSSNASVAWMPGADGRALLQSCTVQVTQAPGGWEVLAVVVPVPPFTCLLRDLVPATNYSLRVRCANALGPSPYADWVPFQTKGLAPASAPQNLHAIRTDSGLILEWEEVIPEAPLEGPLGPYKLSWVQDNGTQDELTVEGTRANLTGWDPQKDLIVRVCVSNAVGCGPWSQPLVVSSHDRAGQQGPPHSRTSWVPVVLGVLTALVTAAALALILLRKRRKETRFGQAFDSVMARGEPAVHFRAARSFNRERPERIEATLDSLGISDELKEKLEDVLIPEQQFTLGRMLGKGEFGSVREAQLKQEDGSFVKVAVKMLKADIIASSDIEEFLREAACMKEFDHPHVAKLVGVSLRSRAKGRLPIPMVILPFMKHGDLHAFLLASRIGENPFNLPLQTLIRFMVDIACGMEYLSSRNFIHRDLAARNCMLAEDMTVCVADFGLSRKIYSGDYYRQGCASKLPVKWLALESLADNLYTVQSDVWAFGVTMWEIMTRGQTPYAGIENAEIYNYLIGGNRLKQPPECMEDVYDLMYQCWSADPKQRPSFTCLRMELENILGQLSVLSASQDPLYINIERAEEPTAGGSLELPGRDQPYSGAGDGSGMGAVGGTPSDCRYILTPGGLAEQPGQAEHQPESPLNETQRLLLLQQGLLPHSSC
In short: (§1)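 Phosphorylation of a biotinylated tyrosine-kinase peptide (800 nM) by AXL (5 nM) or TYRO3/MER (1 nM) is measured at 700 µM ATP after 2 h at room temperature, following 1 h enzyme–compound preincubation. Signal is the time-resolved FRET ratio, converted to percent activity.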

recombinant human MER = target: T2, recombinant human MER (Homo sapiens, UniProt Q12866); assay: Biochemical potency, HTRF KinEASE-TK kinase assay; settings: 1 nM MER, 700 μM ATP
T2 construct: purchased Invitrogen
T2 sequence (Q12866 21-999): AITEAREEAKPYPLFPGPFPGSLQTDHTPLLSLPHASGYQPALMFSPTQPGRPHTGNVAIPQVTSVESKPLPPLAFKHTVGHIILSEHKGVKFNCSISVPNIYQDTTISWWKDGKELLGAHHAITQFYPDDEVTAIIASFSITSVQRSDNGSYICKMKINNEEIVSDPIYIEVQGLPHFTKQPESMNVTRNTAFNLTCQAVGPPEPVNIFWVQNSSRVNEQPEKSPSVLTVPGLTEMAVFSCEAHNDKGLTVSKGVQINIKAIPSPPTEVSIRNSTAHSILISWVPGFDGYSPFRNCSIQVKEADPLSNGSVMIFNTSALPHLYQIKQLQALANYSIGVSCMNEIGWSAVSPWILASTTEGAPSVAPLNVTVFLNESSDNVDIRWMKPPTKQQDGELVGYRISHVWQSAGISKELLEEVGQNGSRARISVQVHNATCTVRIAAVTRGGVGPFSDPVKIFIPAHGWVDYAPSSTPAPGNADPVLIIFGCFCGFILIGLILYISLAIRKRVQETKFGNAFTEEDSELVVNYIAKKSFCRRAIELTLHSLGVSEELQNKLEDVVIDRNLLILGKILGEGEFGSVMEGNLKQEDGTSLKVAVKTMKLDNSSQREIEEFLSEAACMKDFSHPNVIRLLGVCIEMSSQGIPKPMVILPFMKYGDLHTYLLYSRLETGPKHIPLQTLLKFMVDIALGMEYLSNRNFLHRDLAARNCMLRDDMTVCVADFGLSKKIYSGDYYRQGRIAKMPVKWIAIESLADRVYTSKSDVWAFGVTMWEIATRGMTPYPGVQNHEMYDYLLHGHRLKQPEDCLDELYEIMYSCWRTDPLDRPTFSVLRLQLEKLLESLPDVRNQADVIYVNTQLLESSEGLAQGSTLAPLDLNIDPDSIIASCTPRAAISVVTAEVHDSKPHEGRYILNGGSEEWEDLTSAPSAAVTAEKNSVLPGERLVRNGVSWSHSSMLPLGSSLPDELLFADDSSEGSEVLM
In short: as §1

SMILES: Clc1cccnc1-c1ccc(-c2c[nH]c3ncc(-c4ccc5c(c4)CC[C@@H](N4C6COCC4C6)CC5)cc23)cc1 [Example 43, 6-[(7S)-2-{3-[4-(3-Chloropyridin-2-yl)phenyl]-1H-pyrrolo[2,3-b]pyridin-5-yl}-6,7,8,9-tetrahydro-5H-benzo[7]annulen-7-yl]-3-oxa-6-azabicyclo[3.1.1]heptane]
IC50 (recombinant human TYRO3): 100 to 1000 nM
IC50 (recombinant human MER): 100 to 1000 nM

SMILES: COc1ccnc(-c2ccc(-c3c[nH]c4ncc(-c5ccc6c(c5)CC[C@@H](N5C7COCC5C7)CC6)cc34)cc2)c1C [Example 86, 6-[(7S)-3-[3-[4-(4-Methoxy-3-methylpyridin-2-yl)phenyl]-1H-pyrrolo[2,3-b]pyridin-5-yl]-6,7,8,9-tetrahydro-5H-benzo[7]annulen-7-yl]-3-oxa-6-azabicyclo[3.1.1]heptane]
IC50 (recombinant human TYRO3): 100 to 1000 nM
IC50 (recombinant human MER): 100 to 1000 nM

SMILES: Cc1cccnc1-c1ccc(-c2c[nH]c3ncc(-c4ccc5c(c4)CC[C@@H](N4C6COCC4C6)CC5)cc23)cc1 [Example 1, 6-[(7S)-2-{3-[4-(3-Methylpyridin-2-yl)phenyl]-1H-pyrrolo[2,3-b]pyridin-5-yl}-6,7,8,9-tetrahydro-5H-benzo[7]annulen-7-yl]-3-oxa-6-azabicyclo[3.1.1]heptane]
IC50 (recombinant human TYRO3): < 100 nM
IC50 (recombinant human MER): < 100 nM

SMILES: Cc1cccnc1-c1ccc(-c2n[nH]c3ncc(-c4ccc5c(c4)CC[C@@H](N4C6COCC4C6)CC5)cc23)cc1 [Example 2, 6-[(7S)-2-{3-[4-(3-Methylpyridin-2-yl)phenyl]-2H-pyrazolo[3,4-b]pyridin-5-yl}-6,7,8,9-tetrahydro-5H-benzo[7]annulen-7-yl]-3-oxa-6-azabicyclo[3.1.1]heptane]
IC50 (recombinant human TYRO3): < 100 nM
IC50 (recombinant human MER): 100 to 1000 nM

SMILES: C[C@@H]1CCCN1[C@@]1(C)CCc2ccc(-c3cnc4[nH]nc(-c5ccc(-c6ncco6)cc5)c4c3)cc2CC1 [Example 90, 2-(4-{5-[(7S)-7-Methyl-7-[(2R)-2-methylpyrrolidin-1-yl]-6,7,8,9-tetrahydro-5H-benzo[7]annulen-2-yl]-2H-pyrazolo[3,4-b]pyridin-3-yl}phenyl)-1,3-oxazole]
IC50 (recombinant human TYRO3): 100 to 1000 nM
IC50 (recombinant human MER): 100 to 1000 nM

SMILES: COc1cccc(-c2ccc(-c3n[nH]c4ncc(-c5ccc6c(c5)CC[C@@H](N5C7COCC5C7)CC6)cc34)cc2)n1 [Example 162, 6-[(7S)-2-{3-[4-(6-Methoxypyridin-2-yl)phenyl]-2H-pyrazolo[3,4-b]pyridin-5-yl}-6,7,8,9-tetrahydro-5H-benzo[7]annulen-7-yl]-3-oxa-6-azabicyclo[3.1.1]heptane]
IC50 (recombinant human TYRO3): > 1000 nM
IC50 (recombinant human MER): > 1000 nM

SMILES: Cc1nncn1-c1ccc(-c2n[nH]c3ncc(-c4ccc5c(c4)CC[C@@H](N4C6COCC4C6)CC5)cc23)cc1 [Example 11, 6-[(7S)-2-{3-[4-(3-Methyl-4H-1,2,4-triazol-4-yl)phenyl]-1H-pyrazolo[3,4-b]pyridin-5-yl}-6,7,8,9-tetrahydro-5H-benzo[7]annulen-7-yl]-3-oxa-6-azabicyclo[3.1.1]heptane]
IC50 (recombinant human TYRO3): > 1000 nM
IC50 (recombinant human MER): > 1000 nM

Continued, values first:

IC50 (recombinant human TYRO3): 100 to 1000 nM
IC50 (recombinant human MER): 100 to 1000 nM
SMILES: Cc1cnc(C)c(-c2ccc(-c3c[nH]c4ncc(-c5ccc6c(c5)CC[C@@](C)(N5CCC[C@H]5C)CC6)cc34)cc2)n1 [Example 58, 2,5-Dimethyl-3-(4-{5-[(7S)-7-methyl-7-[(2R)-2-methylpyrrolidin-1-yl]-6,7,8,9-tetrahydro-5H-benzo[7]annulen-2-yl]-1H-pyrrolo[2,3-b]pyridin-3-yl}phenyl)pyrazine]

IC50 (recombinant human TYRO3): 100 to 1000 nM
IC50 (recombinant human MER): 100 to 1000 nM
SMILES: Fc1cccnc1-c1ccc(-c2c[nH]c3ncc(-c4ccc5c(c4)CC[C@@H](N4C6COCC4C6)CC5)cc23)cc1 [Example 42, 6-[(7S)-2-{3-[4-(3-Fluoropyridin-2-yl)phenyl]-1H-pyrrolo[2,3-b]pyridin-5-yl}-6,7,8,9-tetrahydro-5H-benzo[7]annulen-7-yl]-3-oxa-6-azabicyclo[3.1.1]heptane]

IC50 (recombinant human TYRO3): 100 to 1000 nM
IC50 (recombinant human MER): < 100 nM
SMILES: Cc1cc(C)c(-c2ccc(-c3c[nH]c4ncc(-c5ccc6c(c5)CC[C@@H](N5C7COCC5C7)CC6)cc34)cc2)nn1 [Example 80, 6-[(7S)-2-{3-[4-(4,6-Dimethylpyridazin-3-yl)phenyl]-1H-pyrrolo[2,3-b]pyridin-5-yl}-6,7,8,9-tetrahydro-5H-benzo[7]annulen-7-yl]-3-oxa-6-azabicyclo[3.1.1]heptane]

IC50 (recombinant human TYRO3): > 1000 nM
IC50 (recombinant human MER): > 1000 nM
SMILES: c1cc(-n2cc(-c3c[nH]c4ncc(-c5ccc6c(c5)CC[C@@H](N5C7COCC5C7)CC6)cc34)cn2)ccn1 [Example 45, 6-[(7S)-2-{3-[1-(Pyridin-4-yl)-1H-pyrazol-4-yl]-1H-pyrrolo[2,3-b]pyridin-5-yl}-6,7,8,9-tetrahydro-5H-benzo[7]annulen-7-yl]-3-oxa-6-azabicyclo[3.1.1]heptane]

IC50 (recombinant human TYRO3): < 100 nM
IC50 (recombinant human MER): < 100 nM
SMILES: Cc1cncnc1-c1ccc(-c2c[nH]c3ncc(-c4ccc5c(c4)CC[C@@H](N4C6COCC4C6)CC5)cc23)cc1 [Example 47, 6-[(7S)-2-{3-[4-(5-Methylpyrimidin-4-yl)phenyl]-1H-pyrrolo[2,3-b]pyridin-5-yl}-6,7,8,9-tetrahydro-5H-benzo[7]annulen-7-yl]-3-oxa-6-azabicyclo[3.1.1]heptane]

IC50 (recombinant human TYRO3): < 100 nM
IC50 (recombinant human MER): 100 to 1000 nM
SMILES: Cc1cc(C)c(-c2ccc(-c3n[nH]c4ncc(-c5ccc6c(c5)CC[C@@H](N5C7COCC5C7)CC6)cc34)cc2)nn1 [Example 77, 6-[(7S)-2-{3-[4-(4,6-Dimethylpyridazin-3-yl)phenyl]-1H-pyrazolo[3,4-b]pyridin-5-yl}-6,7,8,9-tetrahydro-5H-benzo[7]annulen-7-yl]-3-oxa-6-azabicyclo[3.1.1]heptane]

IC50 (recombinant human TYRO3): 100 to 1000 nM
IC50 (recombinant human MER): > 1000 nM
SMILES: Cc1nccnc1-c1ccc(-c2c[nH]c3ncc(-c4ccc5c(c4)CC[C@@H](N4C6COCC4C6)CC5)cc23)nc1 [Example 54, 6-[(7S)-2-{3-[5-(3-Methylpyrazin-2-yl)pyridin-2-yl]-1H-pyrrolo[2,3-b]pyridin-5-yl}-6,7,8,9-tetrahydro-5H-benzo[7]annulen-7-yl]-3-oxa-6-azabicyclo[3.1.1]heptane]

IC50 (recombinant human TYRO3): 100 to 1000 nM
IC50 (recombinant human MER): 100 to 1000 nM
SMILES: Cc1cnc(-c2ccc(-c3c[nH]c4ncc(-c5ccc6c(c5)CC[C@@H](N5C7COCC5C7)CC6)cc34)cc2)c(C)n1 [Example 50, 6-[(7S)-2-{3-[4-(3,5-Dimethylpyrazin-2-yl)phenyl]-1H-pyrrolo[2,3-b]pyridin-5-yl}-6,7,8,9-tetrahydro-5H-benzo[7]annulen-7-yl]-3-oxa-6-azabicyclo[3.1.1]heptane]

IC50 (recombinant human TYRO3): > 1000 nM
IC50 (recombinant human MER): > 1000 nM
SMILES: c1cncc(-c2ccc(-c3n[nH]c4ncc(-c5ccc6c(c5)CC[C@@H](N5C7COCC5C7)CC6)cc34)cc2)c1 [Example 157, 6-[(7S)-2-{3-[4-(Pyridin-3-yl)phenyl]-2H-pyrazolo[3,4-b]pyridin-5-yl}-6,7,8,9-tetrahydro-5H-benzo[7]annulen-7-yl]-3-oxa-6-azabicyclo[3.1.1]heptane]
